The values below come from patent publication US20180216057A1, “SYSTEM AND METHOD FOR GENERATING BIOLOGICAL TISSUE” (Yale University, priority 2017, published 2018).

Assay [1] relates to hiPSC-CM EHTs. The assay is described as follows: Inotropic/lusitropic response of hiPSC-CM EHTs to β-adrenergic agonist. The assay is classed as cell-based, human. To be noted: 100 nM isoproterenol, 8% stretch, 30 minutes equilibration, vs baseline. The method, then: To determine twitch force development and kinetics, EHTs were measured as early as 5 days after seeding. Clips holding the EHT were ejected from the frame and picked up by motorized micromanipulators with claw-like extensions, leaving the muscle suspended between an anchoring attachment claw on one end and a force transducer mounted to a second claw on the other (FIG. 5D). The EHT was immersed in a temperature-controlled perfusion bath equipped with electrodes for field stimulus. Throughout measurements, scaffolds were perfused with freshly oxygenated Tyrode's solution (in mM: NaCl 140, KCl5.4, MgCl2 1, HEPES 25, glucose 10, and CaCl 1.8; pH adjusted to 7.35). Used Tyrode's solution was collected in a sealed chamber during testing and checked to ensure adequate consistency of pH. The maximum fluctuation never exceeded 0.05 pH units. All measurements were performed at 35° C. During biomechanical testing, NRVM-EHTs were electrically paced (12 V, 10 ms pulse width at 0.5 Hz) and the resulting twitch force was recorded (FIG. 5E). Human EHTs were paced at 1 Hz. Intracellular calcium concentrations were measured in some constructs using the ratiometric fluorescent indicator Fura-2 AM. Inotropic response. […] Tissues were equilibrated in Tyorde's solution for 30 minutes and measured at 8% stretch. […]

Assay [2] deals with EHTs from neonatal rat ventricular myocytes (NRVMs) seeded into laser-cut decellularized porcine myocardium. In words: Twitch stress and kinetics of NRVM engineered heart tissues cultured with thyroid hormone T3. The assay is classed as cell-based. The method, then:
To determine twitch force development and kinetics, EHTs were measured as early as 5 days after seeding. Clips holding the EHT were ejected from the frame and picked up by motorized micromanipulators with claw-like extensions, leaving the muscle suspended between an anchoring attachment claw on one end and a force transducer mounted to a second claw on the other (FIG. 5D). The EHT was immersed in a temperature-controlled perfusion bath equipped with electrodes for field stimulus. Throughout measurements, scaffolds were perfused with freshly oxygenated Tyrode's solution (in mM: NaCl 140, KCl5.4, MgCl2 1, HEPES 25, glucose 10, and CaCl 1.8; pH adjusted to 7.35). Used Tyrode's solution was collected in a sealed chamber during testing and checked to ensure adequate consistency of pH. The maximum fluctuation never exceeded 0.05 pH units. All measurements were performed at 35° C. During biomechanical testing, NRVM-EHTs were electrically paced (12 V, 10 ms pulse width at 0.5 Hz) and the resulting twitch force was recorded (FIG. 5E). Human EHTs were paced at 1 Hz. Intracellular calcium concentrations were measured in some constructs using the ratiometric fluorescent indicator Fura-2 AM.
During mechanical testing, EHTs were stretched until reaching their culture length (6 mm) and again after applying 0.1 mm incremental increases until reaching a length of 6.6 mm (representing 10% total stretch). Ten contraction events were recorded and averaged at each level of stretch. The peak stress (mN/mm^2) was computed offline by dividing measured force by the cross-sectional area of the EHT. Characteristics of contraction kinetics were also computed offline, including the time to peak stress (TTP) and time from peak stress to 50% relaxation (RT50). The length-stress gain during isometric stretch (slope of the stretch-peak stress relationship, FIG. 13C) was calculated for each scaffold using engineering strain as the unit for stretch. The force-frequency relationship was determined while keeping EHTs at 10% stretch and taking records at 0.5, 1, 2, 4, 6, and 8 Hz. During force-frequency measurements, pacing capture of EHTs was ensured by checking real time oscilloscope readings of the force transducer voltage output.
Thyroid hormone speeds contractile kinetics. To assess the sensitivity of this system towards changes in contractility and twitch kinetics, EHTs were subjected to a pharmacological perturbation known to alter the intrinsic properties of cardiac muscle. In rodents, an increase in thyroid hormone (T3) promotes expression of the faster α isoform of myosin heavy chain23. […] EHTs were characterized functionally and then returned to culture conditions at days 5, 8, 12, and 15.

The mark [3] stands for this setting: 15 days old NRVM EHTs after T3 treatment, 2 Hz pacing.

Molecules are shown by their SMILES.

Regarding `CC(C)NCC(O)c1ccc(O)c(O)c1` (stereo not shown) [Isoproterenol], the “lusitropic response (twitch kinetics TTP and RT50)” value in assay [1] is “shorter TTP and RT50”.

As for `N[C@@H](Cc1cc(I)c(Oc2ccc(O)c(I)c2)c(I)c1)C(=O)O` [T3], in assay [2] (setting [3]), the RT50 result is reported as “around 59 ms” and the TTP was 83 ms. Moreover, the “time to peak stress (TTP)” value in assay [2] (NRVM EHTs, T3 10 ng/ml in culture, after 15 days in culture, untreated 113±6 ms) was determined as 77 ± 2 ms. In addition, the “time from peak stress to 50% relaxation (RT50)” value in assay [2] (NRVM EHTs, T3 10 ng/ml in culture, after 15 days in culture, untreated 130±3 ms) amounted to 63 ± 3 ms. For the same compound, the “effect on evolution of peak stress development across time points” value in assay [2] (T3 10 ng/ml, days 5, 8, 12, 15, 2-way repeated measures ANOVA) is “no significant effect”. Moreover, in assay [2] (T3 10 ng/ml, every time point analyzed (days 5, 8, 12, 15), p<0.001), the “effect on rates of contraction and relaxation vs non-treated control” value is “significantly accelerated rates of contraction and relaxation”.
